According to ChEMBL document CHEMBL1201862, “PubChem BioAssay data set” (2004):
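Method: 48-hour compound exposure of cells in 96-well plates, five concentrations, linear interpolation of endpoints. GI50 = concentration required for 50% inhibition of growth.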 Calls of active or inactive are those of the source. Rule as the data show it: active = GI50 up to about 1.1 µM and inactive = higher.

Assays:
Assay in all cases: NCI-60 cell line screen, 48 h
786-0 = test system: 786-0
A549 = test system: A549
ACHN = test system: ACHN
CAKI-1 = test system: CAKI-1
CCRF-CEM = test system: CCRF-CEM
COLO 205 = test system: COLO 205
DLD-1 = test system: DLD-1
DMS-114 = test system: DMS-114
DMS-273 = test system: DMS-273
EKVX = test system: EKVX
HCC 2998 = test system: HCC 2998
HCT-116 = test system: HCT-116
HCT-15 = test system: HCT-15
HL-60 = test system: HL-60
HOP-62 = test system: HOP-62
HT-29 = test system: HT-29
IGROV-1 = test system: IGROV-1
K562 = test system: K562
KM-20L2 = test system: KM-20L2
KM12 = test system: KM12
LOX IMVI = test system: LOX IMVI
LXFL 529 = test system: LXFL 529
M14 = test system: M14
M19-MEL = test system: M19-MEL
MOLT-4 = test system: MOLT-4
Malme-3M = test system: Malme-3M
NCI-H226 = test system: NCI-H226
NCI-H23 = test system: NCI-H23
NCI-H460 = test system: NCI-H460
NCI-H522 = test system: NCI-H522
OVCAR-3 = test system: OVCAR-3
OVCAR-4 = test system: OVCAR-4
OVCAR-5 = test system: OVCAR-5
OVCAR-8 = test system: OVCAR-8
RXF 393 = test system: RXF 393
RXF 631 = test system: RXF 631
SF-268 = test system: SF-268
SF-295 = test system: SF-295
SF-539 = test system: SF-539
SK-MEL-28 = test system: SK-MEL-28
SK-MEL-2 = test system: SK-MEL-2
SK-OV-3 = test system: SK-OV-3
SN12C = test system: SN12C
SNB-19 = test system: SNB-19
SNB-78 = test system: SNB-78
SR = test system: SR
SW-620 = test system: SW-620
TK-10 = test system: TK-10
U-251 = test system: U-251
UACC-257 = test system: UACC-257
UACC-62 = test system: UACC-62
UO-31 = test system: UO-31
XF498 = test system: XF498
HOP-18 = test system: HOP-18
HOP-92 = test system: HOP-92
SNB-75 = test system: SNB-75
A498 = test system: A498
RPMI-8226 = test system: RPMI-8226
SK-MEL-5 = test system: SK-MEL-5

Compound: Cc1nc(-n2nc(-c3ccccc3)cc2-c2ccccc2)sc1C(=O)/C=C/c1ccc(Cl)c(Cl)c1
- GI50 (786-0): 15.7 µM (inactive)
- GI50 (A549): 25.6 µM (inactive)
- GI50 (ACHN): 23.7 µM (inactive)
- GI50 (CAKI-1): 24.8 µM (inactive)
- GI50 (CCRF-CEM): 16.9 µM (inactive)
- GI50 (COLO 205): 28.7 µM (inactive)
- GI50 (DLD-1): 13.4 µM (inactive)
- GI50 (DMS-114): 33.3 µM (inactive)
- GI50 (DMS-273): 32.2 µM (inactive)
- GI50 (EKVX): 27 µM (inactive)
- GI50 (HCC 2998): 24.7 µM (inactive)
- GI50 (HCT-116): 26.7 µM (inactive)
- GI50 (HCT-15): 15.9 µM
- GI50 (HL-60): 14 µM (inactive)
- GI50 (HOP-62): 21.9 µM (inactive)
- GI50 (HT-29): > 10 µM (inactive)
- GI50 (IGROV-1): 12.1 µM (inactive)
- GI50 (K562): 15.8 µM (inactive)
- GI50 (KM-20L2): 12.2 µM (inactive)
- GI50 (KM12): 8.67 µM (inactive)
- GI50 (LOX IMVI): 13.1 µM (inactive)
- GI50 (LXFL 529): 15.3 µM (inactive)
- GI50 (M14): 17.6 µM (inactive)
- GI50 (M19-MEL): 51.6 µM (inactive)
- GI50 (MOLT-4): 11.8 µM (inactive)
- GI50 (Malme-3M): 32.4 µM (inactive)
- GI50 (NCI-H226): 15.3 µM (inactive)
- GI50 (NCI-H23): 49.2 µM (inactive)
- GI50 (NCI-H460): > 100 µM (inactive)
- GI50 (NCI-H522): 10 µM (inactive)
- GI50 (OVCAR-3): 15.9 µM (inactive)
- GI50 (OVCAR-4): 21.1 µM (inactive)
- GI50 (OVCAR-5): 18.8 µM (inactive)
- GI50 (OVCAR-8): 14.1 µM (inactive)
- GI50 (RXF 393): 28.1 µM (inactive)
- GI50 (RXF 631): 8.26 µM (inactive)
- GI50 (SF-268): 33.1 µM (inactive)
- GI50 (SF-295): 16.7 µM (inactive)
- GI50 (SF-539): 18.3 µM (inactive)
- GI50 (SK-MEL-28): 31.3 µM (inactive)
- GI50 (SK-MEL-2): 41.7 µM (inactive)
- GI50 (SK-OV-3): > 100 µM (inactive)
- GI50 (SN12C): 15.7 µM (inactive)
- GI50 (SNB-19): 16.3 µM (inactive)
- GI50 (SNB-78): 15.6 µM (inactive)
- GI50 (SR): 17.2 µM (inactive)
- GI50 (SW-620): 21.5 µM (inactive)
- GI50 (TK-10): 43.2 µM (inactive)
- GI50 (U-251): 11.6 µM (inactive)
- GI50 (UACC-257): 25.8 µM (inactive)
- GI50 (UACC-62): 4.89 µM (inactive)
- GI50 (UO-31): 10.6 µM (inactive)
- GI50 (XF498): 17.1 µM (inactive)

Compound: C/C=C1/C(=Cc2[nH]c(C=c3[nH]/c(=C/C4=NC(=O)C(CC)=C4C)c(C)c3CCC(=O)O)c(CCC(=O)O)c2C)NC(=O)C1C (stereo not given)
- GI50 (786-0): 2.41 µM (inactive)
- GI50 (A549): 10.5 µM (inactive)
- GI50 (ACHN): 13.7 µM (inactive)
- GI50 (CAKI-1): 16.4 µM (inactive)
- GI50 (CCRF-CEM): 2.1 µM (inactive)
- GI50 (COLO 205): 18.1 µM (inactive)
- GI50 (DLD-1): 2.58 µM (inactive)
- GI50 (DMS-114): 19.1 µM (inactive)
- GI50 (DMS-273): 5.45 µM (inactive)
- GI50 (EKVX): 30.6 µM (inactive)
- GI50 (HCC 2998): 11.4 µM (inactive)
- GI50 (HCT-116): 2.13 µM (inactive)
- GI50 (HCT-15): 2.58 µM
- GI50 (HL-60): 7.59 µM (inactive)
- GI50 (HOP-18): 30.2 µM (inactive)
- GI50 (HOP-62): 2.33 µM (inactive)
- GI50 (HOP-92): 0.0173 µM (active)
- GI50 (HT-29): 5.11 µM (inactive)
- GI50 (IGROV-1): 3.38 µM (inactive)
- GI50 (K562): 2.21 µM (inactive)
- GI50 (KM-20L2): 2.03 µM (inactive)
- GI50 (KM12): 10.8 µM (inactive)
- GI50 (LOX IMVI): 1.04 µM (active)
- GI50 (LXFL 529): 2.06 µM (inactive)
- GI50 (M14): 1.87 µM (inactive)
- GI50 (M19-MEL): 10.9 µM (inactive)
- GI50 (MOLT-4): 1.95 µM (inactive)
- GI50 (Malme-3M): 13.6 µM (inactive)
- GI50 (NCI-H226): 2.59 µM (inactive)
- GI50 (NCI-H23): 21.5 µM (inactive)
- GI50 (NCI-H460): 13 µM (inactive)
- GI50 (NCI-H522): 6.19 µM (inactive)
- GI50 (OVCAR-3): 27.5 µM (inactive)
- GI50 (OVCAR-4): 11.1 µM (inactive)
- GI50 (OVCAR-5): 8.49 µM (inactive)
- GI50 (OVCAR-8): 4.13 µM (inactive)
- GI50 (RXF 393): > 50 µM (inactive)
- GI50 (RXF 631): 6.65 µM (inactive)
- GI50 (SF-268): 7.89 µM (inactive)
- GI50 (SF-295): 6.65 µM (inactive)
- GI50 (SF-539): 6.4 µM (inactive)
- GI50 (SK-MEL-28): 47.6 µM (inactive)
- GI50 (SK-MEL-2): 9.08 µM (inactive)
- GI50 (SK-OV-3): 42.1 µM (inactive)
- GI50 (SN12C): 3.3 µM (inactive)
- GI50 (SNB-19): > 50 µM (inactive)
- GI50 (SNB-75): 4.79 µM (inactive)
- GI50 (SNB-78): 11.5 µM (inactive)
- GI50 (SR): 4.37 µM (inactive)
- GI50 (SW-620): 2.96 µM (inactive)
- GI50 (TK-10): > 50 µM (inactive)
- GI50 (U-251): 7.48 µM (inactive)
- GI50 (UACC-257): 11 µM (inactive)
- GI50 (UACC-62): 8 µM (inactive)
- GI50 (UO-31): 8.24 µM (inactive)
- GI50 (XF498): 8.63 µM (inactive)

Compound: COc1cc(/C=C2\[C@@H]3NC(Cc4c(OC)c(C)c(OC)c(OC)c43)C(=O)N2Cc2ccccc2)c(OC)c(C)c1OC
- GI50 (786-0): 48.6 µM (inactive)
- GI50 (A498): 30.9 µM (inactive)
- GI50 (A549): 41.5 µM (inactive)
- GI50 (ACHN): 44 µM (inactive)
- GI50 (CAKI-1): 48 µM (inactive)
- GI50 (CCRF-CEM): 30.8 µM (inactive)
- GI50 (COLO 205): 15 µM (inactive)
- GI50 (DLD-1): 45.4 µM (inactive)
- GI50 (DMS-114): 29.8 µM (inactive)
- GI50 (DMS-273): 27.9 µM (inactive)
- GI50 (EKVX): 29.4 µM (inactive)
- GI50 (HCC 2998): 38.6 µM (inactive)
- GI50 (HCT-116): 37.5 µM (inactive)
- GI50 (HL-60): 24.6 µM (inactive)
- GI50 (HOP-18): 43.8 µM (inactive)
- GI50 (HOP-62): 54.1 µM (inactive)
- GI50 (HOP-92): 20 µM (inactive)
- GI50 (HT-29): 24.9 µM (inactive)
- GI50 (IGROV-1): 34.1 µM (inactive)
- GI50 (K562): 34.3 µM (inactive)
- GI50 (KM-20L2): 37.8 µM (inactive)
- GI50 (KM12): 56.1 µM (inactive)
- GI50 (LOX IMVI): 42.7 µM (inactive)
- GI50 (LXFL 529): 37.5 µM (inactive)
- GI50 (M14): 31.3 µM (inactive)
- GI50 (M19-MEL): 28.5 µM (inactive)
- GI50 (MOLT-4): 27.5 µM (inactive)
- GI50 (Malme-3M): 28.2 µM (inactive)
- GI50 (NCI-H226): 36.7 µM (inactive)
- GI50 (NCI-H23): 49.7 µM (inactive)
- GI50 (NCI-H460): 21.6 µM (inactive)
- GI50 (NCI-H522): 18.4 µM (inactive)
- GI50 (OVCAR-3): 31.7 µM (inactive)
- GI50 (OVCAR-4): 32.3 µM (inactive)
- GI50 (OVCAR-5): 41.3 µM (inactive)
- GI50 (OVCAR-8): 36.1 µM (inactive)
- GI50 (RPMI-8226): 29.8 µM (inactive)
- GI50 (RXF 393): 23 µM (inactive)
- GI50 (RXF 631): 53.7 µM (inactive)
- GI50 (SF-268): 59.3 µM (inactive)
- GI50 (SF-295): 40.8 µM (inactive)
- GI50 (SF-539): 66.4 µM (inactive)
- GI50 (SK-MEL-28): 60.7 µM (inactive)
- GI50 (SK-MEL-2): 19.9 µM (inactive)
- GI50 (SK-MEL-5): 34.1 µM (inactive)
- GI50 (SK-OV-3): 26.2 µM (inactive)
- GI50 (SN12C): 40.3 µM (inactive)
- GI50 (SNB-19): 80.5 µM (inactive)
- GI50 (SNB-75): 27.7 µM (inactive)
- GI50 (SR): 25 µM (inactive)
- GI50 (SW-620): 68.9 µM (inactive)
- GI50 (TK-10): 40.6 µM (inactive)
- GI50 (U-251): 35.2 µM (inactive)
- GI50 (UACC-257): 34.7 µM (inactive)
- GI50 (UACC-62): 47.5 µM (inactive)
- GI50 (UO-31): 27 µM (inactive)
